Measurements from patent US20050014765A1, “Aryl-heteroaromatic products, compositions comprising them and use” (Aventis Pharma S.A., priority 2003, published 2005).
Structures can show the parent of a compound that is named as a salt.

Columns and labels:
[1] = target: T1, Tubulin purified from pig brains (Sus scrofa, UniProt P02550+P02554); assay: Assessment of the inhibition of tubulin polymerization (turbidimetry at 350 nm); type: biochemical; conditions: concentration which inhibits the rate of polymerization by 50%; tubulin 1 mg/ml, 37° C.; read-out: Inhibition of tubulin polymerization IC 50
T1 construct: Tubulin is purified from pig brains according to published methods; from tissue; host or cells: pig brain
T1 sequence (P02550 whole entry): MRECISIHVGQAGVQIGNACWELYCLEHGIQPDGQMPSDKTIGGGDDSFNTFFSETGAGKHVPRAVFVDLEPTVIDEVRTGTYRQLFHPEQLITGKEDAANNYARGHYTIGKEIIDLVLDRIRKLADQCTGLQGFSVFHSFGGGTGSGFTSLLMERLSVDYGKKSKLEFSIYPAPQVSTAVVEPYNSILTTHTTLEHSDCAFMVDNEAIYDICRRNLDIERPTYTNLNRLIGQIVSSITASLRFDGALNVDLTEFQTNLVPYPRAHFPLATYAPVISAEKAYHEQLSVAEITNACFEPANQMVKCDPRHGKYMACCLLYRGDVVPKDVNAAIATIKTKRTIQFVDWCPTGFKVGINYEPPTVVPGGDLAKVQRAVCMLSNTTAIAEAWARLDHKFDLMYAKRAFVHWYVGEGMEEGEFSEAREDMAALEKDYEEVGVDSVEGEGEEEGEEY
T1 sequence (P02554 whole entry): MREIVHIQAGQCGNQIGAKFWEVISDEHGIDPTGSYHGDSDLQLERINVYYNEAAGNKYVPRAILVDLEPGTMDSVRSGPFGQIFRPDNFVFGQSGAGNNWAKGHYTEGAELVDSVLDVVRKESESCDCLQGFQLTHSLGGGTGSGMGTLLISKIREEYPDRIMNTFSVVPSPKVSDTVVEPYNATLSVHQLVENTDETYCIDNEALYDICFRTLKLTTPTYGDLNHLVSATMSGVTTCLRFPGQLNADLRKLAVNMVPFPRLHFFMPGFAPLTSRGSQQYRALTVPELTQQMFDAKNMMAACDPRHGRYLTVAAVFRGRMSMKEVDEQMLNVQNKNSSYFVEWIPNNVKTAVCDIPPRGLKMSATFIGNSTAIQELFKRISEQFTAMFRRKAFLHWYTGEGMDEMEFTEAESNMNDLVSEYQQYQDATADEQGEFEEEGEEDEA
Protocol: Assessment of the Inhibition of Tubulin Polymerization
Tubulin is purified from pig brains according to published methods (Shelanski et al., 1973, Proc. Natl. Acad. Sci. USA, 70, 765-768. Weingarten et al., 1975, Proc. Natl. Acad. Sci. USA, 72, 1858-1862). Briefly, the brains are ground and centrifuged in an extraction buffer. The tubulin, present in the extract supernatant is subjected to two successive cycles of polymerization at 37° C. and depolymerization at 4° C., before being separated from the MAPs (Microtubule Associated Proteins) by chromatography on a phosphocellulose P11 column (Whatman). The tubulin thus isolated is more than 95% pure. It is stored in a buffer known as RB/2 30% glycerol, the composition of which is 50 mM MES-NaOH [2-(N-morpholino)ethanesulfonic acid], pH 6.8; 0.25 mM MgCl2; 0.5 mM EGTA; 30% (v/v) glycerol, 0.2 mM GTP (guanosine 5′-triphosphate).
The polymerization of the tubulin into microtubules is monitored by turbidimetry as follows: the tubulin is adjusted to a concentration of 10 μm (1 mg/ml) in the RB/2 30% glycerol buffer, to which are added 1 mM GTP and 6 mM MgCl2. The polymerization is initiated by increasing the temperature from 6° C. to 37° C. in a cuvette with a 1 cm optical pathlength, placed in a UVIKON 931 spectrophotometer (Kontron) equipped with a thermostatically-regulated cuvette holder. The increase in turbidity of the solution is monitored at 350 nm.
The products are dissolved at 10 mM in DMSO and added at variable concentrations (0.5 to 10 μm) to the tubulin solution before polymerization. The IC50 is defined as the concentration of the product which inhibits the rate of polymerization by 50%.

HCT116 cells = assay: Inhibition of proliferation of the HCT116 human colon tumor line ([14C]-thymidine incorporation); type: cell-based; conditions: HCT-116, 48 hours incubation at 37° C., read-out: Inhibition of HCT116 proliferation IC 50
Protocol: Test for Determining the Inhibition of Proliferation of the HCT116 Human Colon Tumor Line
The proliferation of HCT116 cells is evaluated by mesuring the incorporation of [^14C]-thymidine in the following way. The HCT166 cells (from the ATCC) are cultured in a DMEM medium (Gibco) which contains 10% of fetal calf serum and antibiotics (1% penicillin, 1% streptomycin). To perform the proliferation test, the cells are seeded into 96-well cytostar microplates (Amersham) at the rate of 5000 cells per well. The [^14C]-thymidine (0.1 μCi/well) and the products to be evaluated are subsequently added. Variable concentrations of products up to 10 μM are used; the DMSO (solvent used to dissolve the products) should not exceed 0.5% in the medium. 48 hours after incubation at 37° C., the radioactivity incorporated into the cells is measured by counting the plate in a Tri-Lux counter (Wallac). The IC50 is defined as the concentration of product which reduces the radioactivity by 50% compared with an untreated control. A product with an IC50 of less than 10 μm is regarded as cytotoxic.

Row | Compound | IC50 [1] [µM] | IC50 (HCT116 cells) [µM]
1 | N#Cc1cccc(N2CCN(C(=O)c3c[nH]cc3-c3ccccc3)CC2)c1 [Example 61, 3-[4-(4-Phenyl-1H-pyrrol-3-ylcarbonyl)piperazin-1-yl]benzonitrile] | 2.32 | 0.04
2 | O=C(c1cncn1-c1ccccc1)N1CCN(c2cccc(Cl)c2)CC1 [Example 1, [4-(3-Chlorophenyl)piperazin-1-yl](1-phenyl-1H-imidazol-5-yl)methanone] | 2 | 0.0296
3 | O=C(c1[nH]cnc1-c1ccccc1)N1CCN(c2cccc(Cl)c2)CC1 [Example 3, [4-(3-Chlorophenyl)piperazin-1-yl](4-phenyl-1H-imidazol-5-yl)methanone] | 1 | 0.0068
4 | O=C(c1c[nH]cc1-c1ccccc1)N1CCN(c2cccc(Cl)c2)CC1 [Example 15, [4-(3-Chlorophenyl)piperazin-1-yl](4-phenyl-1H-pyrrol-3-yl)methanone] | 2.9 | 0.731
5 | Cn1cc(C(=O)N2CCN(c3cccc(C(N)=O)c3)CC2)c(-c2ccccc2)c1 [Example 37, 3-[4-(1-Methyl-4-phenyl-1H-pyrrol-3-yl-carbonyl)piperazin-1-yl]benzamide] | 0.72 | 0.0149
6 | COc1cc(OC)cc(N2CCN(C(=O)c3[nH]ccc3-c3ccccc3)CC2)c1 [Example 8, [4-(3,5-Dimethoxyphenyl)piperazin-1-yl](3-phenyl-1H-pyrrol-2-yl)methanone] | 1.2 | 0.0029
7 | O=C(c1[nH]cnc1-c1ccccc1)N1CCN(c2cccc(CO)c2)CC1 [Example 68, [4-(3-Hydroxymethylphenyl)piperazin-1-yl](4-phenyl-1H-imidazol-5-yl)methanone] | 0.48 | 0.013
8 | COc1cc(OC)c(O)c(N2CCN(C(=O)c3[nH]c([S+](C)[O-])nc3-c3ccccc3)CC2)c1 (stereo not shown) [Example 38, [4-(2-Hydroxy-3,5-dimethoxyphenyl)piperazin-1-yl](2-methanesulfinyl-5-phenyl-1H-imidazol-4-yl)methanone] | 19.9 | 2.31
9 | COc1cc(OC)cc(N2CCN(C(=O)c3ccn(Cc4cccnc4)c3-c3ccccc3)CC2)c1 [Example 64, [4-(3,5-Dimethoxyphenyl)piperazin-1-yl][1-(3-pyridyl)methyl-2-phenyl-1H-pyrrol-3-yl]methanone] | 13.4 | 
10 | O=C(c1[nH]ccc1-c1ccccc1)N1CCN(c2cccc(Cl)c2)CC1 [Example 6, [4-(3-Chlorophenyl)piperazin-1-yl](3-phenyl-1H-pyrrol-2-yl)methanone] | 0.69 | 0.034
11 | COc1cc(OC)cc(N2CCN(C(=O)c3c[nH]cc3-c3ccccc3)CC2)c1 [Example 16, [4-(3,5-Dimethoxyphenyl)piperazin-1-yl](4-phenyl-1H-pyrrol-3-yl)methanone] | 2.4 | 0.0085
12 | O=C(O)CCn1cc(C(=O)N2CCN(c3cccc(Cl)c3)CC2)c(-c2ccccc2)c1 [Example 32, 3-{3-[4-(3-Chlorophenyl)piperazin-1-ylcarbonyl]-4-phenylpyrrol-1-yl}-propionic acid] | 2.74 | 
13 | COc1cc(OC)cc(N2CCN(C(=O)c3cn(Cc4cscn4)cc3-c3ccccc3)CC2)c1 [Example 45, [4-(3,5-Dimethoxyphenyl)piperazin-1-yl][1-(thiazol-4-yl)methyl-4-phenyl-1H-pyrrol-3-yl]methanone] | 4.85 | 
14 | COC(=O)Cn1cc(C(=O)N2CCN(c3cccc(C(N)=O)c3)CC2)c(-c2ccccc2)c1 [Example 65] | 13.5 | 
15 | CN(C)CCn1cc(C(=O)N2CCN(c3cccc(Cl)c3)CC2)c(-c2ccccc2)c1 [Example 31, [4-(3-Chlorophenyl)piperazin-1-yl][1-(2-dimethylaminoethyl)-4-phenyl-1H-pyrrol-3-yl]methanone hydrochloride] | 25 | 
16 | COc1cccc(N2CCN(C(=O)c3ccoc3-c3ccc(Cl)cc3)CC2)c1 [Example 5, [4-(3-Methoxyphenyl)piperazin-1-yl][2-(4-chlorophenyl)furan-3-yl]methanone] | 11.5 | 
17 | NC(=O)c1cccc(N2CCN(C(=O)c3[nH]c(S)nc3-c3ccccc3)CC2)c1 [Example 44, 3-[4-(2-Mercapto-4-phenyl-1H-imidazol-5-ylcarbonyl)piperazin-1-yl]benzamide] | 1.06 | 
18 | COC(=O)Cn1ccc(C(=O)N2CCN(c3cc(OC)cc(OC)c3)CC2)c1-c1ccccc1 [Example 49, Methyl 2-{3-[4-(3,5-dimethoxyphenyl)piperazin-1-yl]carbonyl-2-phenyl-1H-pyrrol-1-yl}acetate] | 1.57 | 
19 | COc1cc(OC)cc(N2CCN(C(=O)c3cc[nH]c3-c3ccccc3)CC2)c1 [Example 21, [4-(3,5-Dimethoxyphenyl)piperazin-1-yl](2-phenyl-1H-pyrrol-3-yl)methanone] | 9.7 | 
20 | Cn1ccc(-c2ccccc2)c1C(=O)N1CCN(c2cccc(Cl)c2)CC1 [Example 7, [4-(3-Chlorophenyl)piperazin-1-yl](1-methyl-3-phenyl-1H-pyrrol-2-yl)-methanone] | 12.8 | 

Continued, values first:

Row | IC50 [1] [µM] | IC50 (HCT116 cells) [µM] | Compound
21 | 0.725 | 0.244 | O=C(c1[nH]c(S)nc1-c1ccccc1)N1CCN(c2cccc(CO)c2)CC1 [Example 78, [4-(3-Hydroxymethylphenyl)piperazin-1-yl](2-mercapto-4-phenyl-1H-imidazol-5-yl)methanone]
22 | 3.61 |  | NC(=O)c1cccc(N2CCN(C(=O)c3ccn(CCO)c3-c3ccccc3)CC2)c1 [Example 77, 3-[4-(1-Hydroxyethyl-2-phenyl-1H-pyrrol-3-ylcarbonyl)piperazin-1-yl]-benzamide]
23 | 0.095 |  | COCCNc1nc(-c2ccccc2)c(C(=O)N2CCN(c3cc(C)cc(C)c3)CC2)s1 [Example 90, [4-(3,5-Dimethylphenyl)piperazin-1-yl][2-(2-methoxyethyl)amino-4-phenylthiazol-5-yl]methanone]
24 | 0.574 |  | N#Cc1cccc(N2CCN(C(=O)c3[nH]c(C(F)(F)F)nc3-c3ccccc3)CC2)c1 [Example 84, 3-[4-(2-Trifluoromethyl-4-phenyl-1H-imidazol-5-ylcarbonyl)piperazin-1-yl]-benzonitrile]
25 | 13.9 |  | CS(=O)(=O)c1nc(-c2ccccc2)c(C(=O)N2CCN(c3cccc(C(N)=O)c3)CC2)[nH]1 [Example 71, 3-[4-(2-Methylsulfonyl-4-phenyl-1H-imidazol-4-ylcarbonyl)piperazin-1-yl]benzamide]
26 | 1.41 |  | O=C(c1[nH]c(C(F)(F)F)nc1-c1ccccc1)N1CCN(c2cccc(CO)c2)CC1 [Example 83, [4-(3-Hydroxymethylphenyl)piperazin-1-yl](2-trifluoromethyl-4-phenyl-1H-imidazol-5-yl)methanone]
27 | 6.41 |  | O=C(c1cc[nH]c1-c1ccccc1)N1CCN(c2cccc(CO)c2)CC1 [Example 86, [4-(3-Hydroxymethylphenyl)piperazin-1-yl](2-phenyl-1H-pyrrol-3-yl)methanone]
28 | 0.167 |  | N#Cc1cccc(N2CCN(C(=O)c3cn(Cc4cccnc4)cc3-c3ccccc3)CC2)c1 [Example 92, 3-{4-[1-(Pyridin-3-yl)methyl-4-phenyl-1H-pyrrol-3-ylcarbonyl]piperazin-1-yl}-benzonitrile]
29 | 0.582 |  | N#Cc1cccc(N2CCN(C(=O)c3cn(CCO)cc3-c3ccccc3)CC2)c1 [Example 87, 3-[4-(1-Hydroxyethyl-4-phenyl-1H-pyrrol-3-ylcarbonyl)piperazin-1-yl]-benzonitrile]
30 | 0.089 |  | COCCNc1nc(-c2ccccc2)c(C(=O)N2CCN(c3cc(OC)cc(OC)c3)CC2)s1 [Example 91, [4-(3,5-Dimethoxyphenyl)piperazin-1-yl][2-(2-methoxyethyl)amino-4-phenylthiazol-5-yl]methanone]
31 | 2.99 |  | O=C(c1ccn(CCO)c1-c1ccccc1)N1CCN(c2cccc(CO)c2)CC1 [Example 89]
32 | 7.76 |  | Cn1ccc(C(=O)N2CCN(c3cccc(CO)c3)CC2)c1-c1ccccc1 [Example 80, [4-(3-Hydroxymethylphenyl)piperazin-1-yl](1-methyl-2-phenyl-1H-pyrrol-3-yl)-methanone]
